Test system: 349418-098-R-PDC complex spheroid growth
Test: Anticancer human tumor 349418-098-R-PDC patient-derived lung adenocarcinoma cell line growth inhibition [AhR]
Settings: for IC50: curve of first compound; for viability, T/C: stronger effect = lower value
Method in brief: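 Spheroids combined tumor cells with HUVEC endothelial cells and human MSCs as stroma. AhR antagonists were paired with standard or investigational drugs, each dosed in half-log steps down from near clinical Cmax, or from 10 microM where Cmax was unknown.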

[1] = second compound 0.1 µM, first compound 0.0316 µM
[2] = second compound 0.1 µM, first compound 0.1 µM
[3] = second compound 0.1 µM, first compound 0.316 µM
[4] = second compound 0.1 µM, first compound 1 µM
[5] = second compound 0.1 µM, first compound 3.16 µM
[6] = second compound 0.1 µM, first compound 10 µM
[7] = second compound 0.316 µM, first compound 0.0316 µM
[8] = second compound 0.316 µM, first compound 0.1 µM
[9] = second compound 0.316 µM, first compound 0.316 µM
[10] = second compound 0.316 µM, first compound 1 µM
[11] = second compound 0.316 µM, first compound 3.16 µM
[12] = second compound 0.316 µM, first compound 10 µM
[13] = second compound 1 µM, first compound 0.0316 µM
[14] = second compound 1 µM, first compound 0.1 µM
[15] = second compound 1 µM, first compound 0.316 µM
[16] = second compound 1 µM, first compound 1 µM
[17] = second compound 1 µM, first compound 3.16 µM
[18] = second compound 1 µM, first compound 10 µM
[19] = second compound 3.16 µM, first compound 0.0316 µM
[20] = second compound 3.16 µM, first compound 0.1 µM
[21] = second compound 3.16 µM, first compound 0.316 µM
[22] = second compound 3.16 µM, first compound 1 µM
[23] = second compound 3.16 µM, first compound 3.16 µM
[24] = second compound 3.16 µM, first compound 10 µM
[25] = second compound 10 µM, first compound 0.0316 µM
[26] = second compound 10 µM, first compound 0.1 µM
[27] = second compound 10 µM, first compound 0.316 µM
[28] = second compound 10 µM, first compound 1 µM
[29] = second compound 10 µM, first compound 3.16 µM
[30] = second compound 10 µM, first compound 10 µM
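Note: spheroids exposed to agents for seven days before luminescence viability read.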
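Throughout, for viability, T/C: spheroids also contain HUVEC endothelial cells and human MSC stroma.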

SMILES | IC50 (second compound 0.1 µM) | IC50 (second compound 0.316 µM) | IC50 (second compound 1 µM) | IC50 (second compound 3.16 µM) | IC50 (second compound 10 µM) | viability, T/C [1] | viability, T/C [2] | viability, T/C [3] | viability, T/C [4] | viability, T/C [5] | viability, T/C [6] | viability, T/C [7] | viability, T/C [8] | viability, T/C [9] | viability, T/C [10] | viability, T/C [11] | viability, T/C [12] | viability, T/C [13] | viability, T/C [14] | viability, T/C [15] | further results
Nc1ccn(C2OC(CO)C(O)C2(F)F)c(=O)n1 (stereo not given) + Cc1ccccc1N=Nc1ccc(NC(=O)c2ccnn2C)c(C)c1 | < 31.6 nM | < 31.6 nM | < 31.6 nM | < 31.6 nM | < 31.6 nM | 15.1% | 14.6% | 13.6% | 12.1% | 11.3% | 8.74% | 15.9% | 13.5% | 14.6% | 13.1% | 11.2% | 9.73% | 15.7% | 14.8% | 15.3% | viability, T/C [16]: 11.7%; viability, T/C [17]: 14.3%; viability, T/C [18]: 11.4%; viability, T/C [19]: 14.9%; viability, T/C [20]: 16.4%; viability, T/C [21]: 13.1%; viability, T/C [22]: 12.7%; viability, T/C [23]: 13%; viability, T/C [24]: 10.1%; viability, T/C [25]: 17.9%; viability, T/C [26]: 17.4%; viability, T/C [27]: 16.7%; viability, T/C [28]: 14.1%; viability, T/C [29]: 13.4%; viability, T/C [30]: 12.2%
O=C(C=Cc1cccc(S(=O)(=O)Nc2ccccc2)c1)NO + Cc1ccccc1N=Nc1ccc(NC(=O)c2ccnn2C)c(C)c1 | 772 nM | 706 nM | 597 nM | 671 nM | 331 nM | 132% | 119% | 73% | 47.6% | 10.4% | 1.93% | 126% | 108% | 82.8% | 36.1% | 8.81% | 1.91% | 109% | 122% | 69.3% | viability, T/C [16]: 33.3%; viability, T/C [17]: 8.25%; viability, T/C [18]: 2.09%; viability, T/C [19]: 94%; viability, T/C [20]: 94.1%; viability, T/C [21]: 78.3%; viability, T/C [22]: 34.7%; viability, T/C [23]: 8.53%; viability, T/C [24]: 2.35%; viability, T/C [25]: 74.7%; viability, T/C [26]: 72.5%; viability, T/C [27]: 50%; viability, T/C [28]: 22.9%; viability, T/C [29]: 8.56%; viability, T/C [30]: 2.05%
O=C(c1cc(Cc2n[nH]c(=O)c3ccccc23)ccc1F)N1CCN(C(=O)C2CC2)CC1 + Cc1ccccc1N=Nc1ccc(NC(=O)c2ccnn2C)c(C)c1 | 2020 nM | 6200 nM | 2810 nM | 661 nM | 1430 nM | 81.3% | 73.2% | 91.4% | 62.1% | 44.9% | 39.6% | 98% | 89% | 108% | 64% | 66.3% | 41.4% | 106% | 82.4% | 69.7% | viability, T/C [16]: 62.8%; viability, T/C [17]: 49.4%; viability, T/C [18]: 39.9%; viability, T/C [19]: 76.9%; viability, T/C [20]: 69.9%; viability, T/C [21]: 63.4%; viability, T/C [22]: 41.8%; viability, T/C [23]: 41.3%; viability, T/C [24]: 43%; viability, T/C [25]: 56.4%; viability, T/C [26]: 53.1%; viability, T/C [27]: 50.9%; viability, T/C [28]: 60.1%; viability, T/C [29]: 38.8%; viability, T/C [30]: 31.4%

— PubChem BioAssay AID1918996 (Molecular Pharmacology Branch, DTP, NCI, 2023)
